This note sets out measurements from patent publication US20080188666A1, “LINEAR PHENYL-SUBSTITUTED INDAZOLES AND INDOLES, A PROCESS FOR THEIR PRODUCTION AND THEIR USE AS ANTI-INFLAMMATORY AGENTS” (priority 2006, published 2008).

In assay [1] the target is T1, glucocorticoid receptor (GR) (Homo sapiens, UniProt P04150).
T1 construct: made in house; host or cells: Sf9 cells infected with recombinant baculovirus (cytosol preparation)
T1 sequence (P04150 1-777): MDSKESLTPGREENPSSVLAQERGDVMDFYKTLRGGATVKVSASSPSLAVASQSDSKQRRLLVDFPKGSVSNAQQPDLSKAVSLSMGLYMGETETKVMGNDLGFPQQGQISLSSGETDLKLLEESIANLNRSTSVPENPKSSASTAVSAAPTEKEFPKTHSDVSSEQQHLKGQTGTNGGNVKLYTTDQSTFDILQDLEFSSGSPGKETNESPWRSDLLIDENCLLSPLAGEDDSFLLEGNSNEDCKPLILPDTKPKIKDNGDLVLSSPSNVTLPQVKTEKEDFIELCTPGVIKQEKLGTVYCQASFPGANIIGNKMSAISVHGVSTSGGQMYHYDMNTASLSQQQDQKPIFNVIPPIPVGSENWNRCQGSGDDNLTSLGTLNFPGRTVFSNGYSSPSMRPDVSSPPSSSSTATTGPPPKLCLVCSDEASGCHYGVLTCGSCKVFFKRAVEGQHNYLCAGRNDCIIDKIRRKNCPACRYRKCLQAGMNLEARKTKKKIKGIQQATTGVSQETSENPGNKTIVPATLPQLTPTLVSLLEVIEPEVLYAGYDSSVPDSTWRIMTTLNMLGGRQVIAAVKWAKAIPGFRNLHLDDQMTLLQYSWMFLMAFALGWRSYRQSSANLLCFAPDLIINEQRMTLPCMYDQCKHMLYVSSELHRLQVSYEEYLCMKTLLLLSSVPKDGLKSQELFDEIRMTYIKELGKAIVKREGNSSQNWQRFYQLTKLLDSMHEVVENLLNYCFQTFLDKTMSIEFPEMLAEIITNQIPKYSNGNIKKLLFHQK
In words: binding to recombinantly produced glucocorticoid receptor, Sf9 cytosol, [3H]-dexamethasone reference. The note with it: recombinant GR. The text has this: (§1) The binding of the substances to the glucocorticoid receptor (GR) and other steroid hormone receptors (mineral corticoid receptor (MR), progesterone receptor (PR) and androgen receptor (AR)) is examined with the aid of recombinantly produced receptors. Cytosol preparations of Sf9 cells, which had been infected with recombinant baculoviruses, which code for the GR, are used for the binding studies. In comparison to reference substance [^3H]-dexamethasone, the substances show a high to very high affinity to GR. IC50(GR)=6.0 nM was thus measured for the compound from Example B7; IC50(MR), IC50(PR), IC50(AR)>1 μmol.

For assay [2], the target named is T2, mineral corticoid receptor (MR) (Homo sapiens, UniProt P08235).
T2 construct: made in house
T2 sequence (P08235 1-984): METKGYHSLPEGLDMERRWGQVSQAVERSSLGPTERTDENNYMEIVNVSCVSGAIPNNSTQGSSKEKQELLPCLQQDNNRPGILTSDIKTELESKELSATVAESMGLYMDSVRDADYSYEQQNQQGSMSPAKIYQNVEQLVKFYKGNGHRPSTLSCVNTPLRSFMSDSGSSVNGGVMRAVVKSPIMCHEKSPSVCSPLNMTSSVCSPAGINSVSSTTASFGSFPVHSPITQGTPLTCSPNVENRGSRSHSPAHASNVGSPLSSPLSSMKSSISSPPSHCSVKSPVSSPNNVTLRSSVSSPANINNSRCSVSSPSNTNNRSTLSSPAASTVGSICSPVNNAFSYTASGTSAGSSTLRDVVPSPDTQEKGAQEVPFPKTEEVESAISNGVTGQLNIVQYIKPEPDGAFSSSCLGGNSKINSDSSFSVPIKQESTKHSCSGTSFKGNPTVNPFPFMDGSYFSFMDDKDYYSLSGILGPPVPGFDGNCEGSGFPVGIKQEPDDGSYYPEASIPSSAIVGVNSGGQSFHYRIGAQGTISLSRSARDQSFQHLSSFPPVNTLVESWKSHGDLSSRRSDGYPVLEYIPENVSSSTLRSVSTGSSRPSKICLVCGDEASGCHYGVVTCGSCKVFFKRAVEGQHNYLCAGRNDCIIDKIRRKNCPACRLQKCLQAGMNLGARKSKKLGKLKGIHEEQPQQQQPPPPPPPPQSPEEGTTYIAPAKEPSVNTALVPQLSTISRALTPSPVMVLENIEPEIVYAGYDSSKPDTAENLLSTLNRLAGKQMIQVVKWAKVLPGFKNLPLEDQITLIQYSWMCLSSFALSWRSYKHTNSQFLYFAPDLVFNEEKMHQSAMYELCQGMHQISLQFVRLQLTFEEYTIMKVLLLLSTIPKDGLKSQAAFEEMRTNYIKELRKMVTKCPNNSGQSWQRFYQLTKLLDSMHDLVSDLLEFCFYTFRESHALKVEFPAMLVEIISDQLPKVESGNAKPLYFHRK
In words: binding to recombinantly produced mineral corticoid receptor. The settings on record: recombinant receptor.
Description: as §1

Assay [3] has as its target T3, progesterone receptor (PR) (Homo sapiens, UniProt P06401).
T3 construct: made in house
T3 sequence (P06401 1-933): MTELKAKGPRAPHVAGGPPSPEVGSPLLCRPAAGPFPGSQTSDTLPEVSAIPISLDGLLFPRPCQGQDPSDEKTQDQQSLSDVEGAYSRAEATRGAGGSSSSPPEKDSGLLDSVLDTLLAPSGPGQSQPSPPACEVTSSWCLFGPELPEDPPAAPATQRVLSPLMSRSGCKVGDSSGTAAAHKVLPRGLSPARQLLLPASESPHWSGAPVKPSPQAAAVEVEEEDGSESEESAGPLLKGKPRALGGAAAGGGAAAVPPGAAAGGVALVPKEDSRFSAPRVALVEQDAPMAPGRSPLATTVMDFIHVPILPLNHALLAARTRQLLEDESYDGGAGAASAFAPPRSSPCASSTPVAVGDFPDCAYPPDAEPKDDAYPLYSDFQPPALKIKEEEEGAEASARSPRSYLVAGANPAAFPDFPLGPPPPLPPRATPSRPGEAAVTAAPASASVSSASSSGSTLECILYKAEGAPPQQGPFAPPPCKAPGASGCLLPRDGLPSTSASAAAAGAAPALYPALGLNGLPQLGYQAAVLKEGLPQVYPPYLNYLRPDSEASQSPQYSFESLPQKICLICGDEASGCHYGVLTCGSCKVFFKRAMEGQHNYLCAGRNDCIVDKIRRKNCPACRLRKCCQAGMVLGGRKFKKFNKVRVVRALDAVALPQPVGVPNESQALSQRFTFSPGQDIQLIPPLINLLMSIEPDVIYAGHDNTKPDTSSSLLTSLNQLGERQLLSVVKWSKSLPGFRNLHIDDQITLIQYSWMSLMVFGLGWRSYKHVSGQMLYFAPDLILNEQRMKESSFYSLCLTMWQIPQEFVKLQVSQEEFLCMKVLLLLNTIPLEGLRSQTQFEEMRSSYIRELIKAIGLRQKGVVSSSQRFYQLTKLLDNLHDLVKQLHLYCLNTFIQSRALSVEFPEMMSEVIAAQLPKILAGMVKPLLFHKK
In words: binding to recombinantly produced progesterone receptor. The note with it: recombinant receptor.
Description: as §1

In the next assay the target is T4, androgen receptor (AR) (Homo sapiens, UniProt P10275).
T4 construct: made in house
T4 sequence (P10275 1-920): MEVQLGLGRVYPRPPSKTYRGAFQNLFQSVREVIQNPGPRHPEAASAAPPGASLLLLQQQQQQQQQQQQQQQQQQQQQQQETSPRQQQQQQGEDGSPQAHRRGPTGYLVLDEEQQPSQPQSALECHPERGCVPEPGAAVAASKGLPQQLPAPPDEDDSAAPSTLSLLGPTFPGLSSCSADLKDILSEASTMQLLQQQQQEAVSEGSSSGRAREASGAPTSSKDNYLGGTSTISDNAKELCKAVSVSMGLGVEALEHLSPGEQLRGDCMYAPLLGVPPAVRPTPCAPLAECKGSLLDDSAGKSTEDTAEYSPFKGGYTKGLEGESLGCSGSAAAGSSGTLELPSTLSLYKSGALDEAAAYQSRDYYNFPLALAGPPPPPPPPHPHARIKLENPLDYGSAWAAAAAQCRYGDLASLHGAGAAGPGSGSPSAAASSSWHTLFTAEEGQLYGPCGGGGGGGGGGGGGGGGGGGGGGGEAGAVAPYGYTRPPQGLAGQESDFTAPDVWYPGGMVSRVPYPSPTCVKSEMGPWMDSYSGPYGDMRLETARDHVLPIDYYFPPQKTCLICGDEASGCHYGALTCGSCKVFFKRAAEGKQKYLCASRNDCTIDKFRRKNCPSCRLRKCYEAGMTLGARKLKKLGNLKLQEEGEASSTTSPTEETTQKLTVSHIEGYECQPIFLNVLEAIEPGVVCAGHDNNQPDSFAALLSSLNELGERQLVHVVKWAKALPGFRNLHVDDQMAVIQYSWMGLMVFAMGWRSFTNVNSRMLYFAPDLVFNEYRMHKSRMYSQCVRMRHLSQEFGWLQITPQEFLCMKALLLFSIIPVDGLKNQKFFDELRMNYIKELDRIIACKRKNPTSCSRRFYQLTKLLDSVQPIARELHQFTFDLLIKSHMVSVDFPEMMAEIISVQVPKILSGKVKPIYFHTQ
In words: binding to recombinantly produced androgen receptor. The settings on record: recombinant receptor.
Description: as §1

For assay [4], the system named is secretion of cytokine IL-8 in human monocyte cell line THP-1. In words: inhibition of LPS-triggered IL-8 secretion in THP-1 cells (ELISA). The assay is classed as cell-based. As to the method: The concentration of the cytokines was determined in the supernatant by means of commercially available ELISA kits.
(In general: ELISA stands for enzyme-linked immunosorbent assay.)

pIC50: −log10 of the molar value.

What is called pIC50 is the negative decadic logarithm of the IC50, by convention in mol/L. Take `CC(C)(CC(O)(CNc1cccc2c1cnn2-c1ccc(F)nc1)C(F)(F)F)c1cc(F)ccc1O` (stereo not drawn) [Example B7, 4-(5-Fluoro-2-hydroxyphenyl)-4-methyl-1-{[1-(6-fluoropyridin-3-yl)indazol-4-yl]amino}-2-(trifluoromethyl)pentan-2-ol]: the pIC50 in assay [1] is 8.22; in assay [2], less than 6.00; in assay [3], less than 6.00; on androgen receptor (AR), less than 6.00; in assay [4] (Homo sapiens, THP-1, supernatant ELISA, read-out: IC50(IL8)), 9.14. The “eff. relative to dexamethasone (IL-8 inhibition)” value in assay [4] (THP-1) turned out to be 97%.
